Data published in patent publication US11560582B2, “Fusion moieties and microbial hosts for protein production” (priority 2018, dated 2023).

What was measured:
Type in all cases: cell-based, Aliivibrio wodanis
[1] = system: A. wodanis strain 01/09/401 (11); experiment: Antibiotic susceptibility testing on LB plates; conditions: 12° C. for 2 days
Method: (§1) Antibiotic susceptibility testing was done by streaking A. wodanis cells onto LB plates supplemented with 2.5% NaCl and one of the following antibiotics: Chloramphenicol (2 μg/mL, Tetracycline (10 μg/mL), Carbenicillin (100 or 200 μg/mL) or Kanamycin (50 or 100 μg/mL). A. wodanis was regarded as susceptible (score=0) if no growth was detected, as intermediate susceptible (score=0.5) if poor growth was detected, or as resistant (score=1) if good growth was detected. The tested concentrations of antibiotics were similar to the recommended working concentrations for E. coli, except Chloramphenicol that was tested at 2 μg/mL (instead of 25 μg/mL). If the test scored as “resistant”, then the test was redone using 2× of the recommended concentration. All A. wodanis strains were streaked onto same agar plate and grown at 12° C. for 2 days.

[2] = system: A. wodanis strain 02/09/382 (8); experiment: Antibiotic susceptibility testing on LB plates; conditions: 12° C. for 2 days
Method: as §1

[3] = system: A. wodanis strain 02/09/569 (7); experiment: Antibiotic susceptibility testing on LB plates; conditions: 12° C. for 2 days
Method: as §1

[4] = system: A. wodanis strain 03/09/160 (37); experiment: Antibiotic susceptibility testing on LB plates; conditions: 12° C. for 2 days
Method: as §1

[5] = system: A. wodanis strain 04/60/17347 (35); experiment: Antibiotic susceptibility testing on LB plates; conditions: 12° C. for 2 days
Method: as §1

[6] = system: A. wodanis strain 06/09/170 (27); experiment: Antibiotic susceptibility testing on LB plates; conditions: 12° C. for 2 days
Method: as §1

[7] = system: A. wodanis strain 06/09/178 (29); experiment: Antibiotic susceptibility testing on LB plates; conditions: 12° C. for 2 days
Method: as §1

[8] = system: A. wodanis strain 88/09/441 (12) (T); experiment: Antibiotic susceptibility testing on LB plates; conditions: 12° C. for 2 days
Method: as §1

[9] = system: A. wodanis strain 89/09/5532 (1); experiment: Antibiotic susceptibility testing on LB plates; conditions: 12° C. for 2 days
Method: as §1

[10] = system: A. wodanis strain 90/09/325 (5); experiment: Antibiotic susceptibility testing on LB plates; conditions: 12° C. for 2 days
Method: as §1

[11] = system: A. wodanis strain K7F1 150913; conditions: 12° C. for 2 days
Method: as §1

[12] = system: A. wodanis strains; experiment: Antibiotic resistance test, summary for all strains; conditions: the twelve strains used in this study
Method: Next, we tested for resistance to antibiotics, four of which are commonly used in biotechnological applications, namely carbenicillin, kanamycin, tetracycline and chloramphenicol.
as §1

## CC1(C)S[C@@H]2[C@H](NC(=O)C(C(=O)O)c3ccccc3)C(=O)N2[C@H]1C(=O)O (some centres unmarked) [CAR, Carbenicillin]
[1]; 100 μg/mL
  Antibiotics resistance CAR 100 μg/mL: 1
[1]; 200 μg/mL
  Antibiotics resistance CAR 200 μg/mL: 1
[2]; 100 μg/mL
  Antibiotics resistance CAR 100 μg/mL: 1
[2]; 200 μg/mL
  Antibiotics resistance CAR 200 μg/mL: 1
[3]; 100 μg/mL
  Antibiotics resistance CAR 100 μg/mL: 1
[3]; 200 μg/mL
  Antibiotics resistance CAR 200 μg/mL: 1
[4]; 100 μg/mL
  Antibiotics resistance CAR 100 μg/mL: 1
[4]; 200 μg/mL
  Antibiotics resistance CAR 200 μg/mL: 1
[5]; 100 μg/mL
  Antibiotics resistance CAR 100 μg/mL: 1
[5]; 200 μg/mL
  Antibiotics resistance CAR 200 μg/mL: 1
[6]; 100 μg/mL
  Antibiotics resistance CAR 100 μg/mL: 1
[6]; 200 μg/mL
  Antibiotics resistance CAR 200 μg/mL: 1
[7]; 100 μg/mL
  Antibiotics resistance CAR 100 μg/mL: 1
[7]; 200 μg/mL
  Antibiotics resistance CAR 200 μg/mL: 1
[8]; 100 μg/mL
  Antibiotics resistance CAR 100 μg/mL: 0.5
[8]; 200 μg/mL
  Antibiotics resistance CAR 200 μg/mL: 0.5
[9]; 100 μg/mL
  Antibiotics resistance CAR 100 μg/mL: 1
[9]; 200 μg/mL
  Antibiotics resistance CAR 200 μg/mL: 1
[10]; 100 μg/mL
  Antibiotics resistance CAR 100 μg/mL: 1
[10]; 200 μg/mL
  Antibiotics resistance CAR 200 μg/mL: 1
[11]; 100 μg/mL
  Antibiotics resistance CAR 100 μg/mL: 1
[11]; 200 μg/mL
  Antibiotics resistance CAR 200 μg/mL: 1
[12]
  sensitivity / resistance to antibiotics: resistance

## O=C(N[C@H](CO)[C@H](O)c1ccc([N+](=O)[O-])cc1)C(Cl)Cl [CHL, chloramphenicol]
[1]; 2 μg/mL
  Antibiotics resistance CHL 2 μg/mL: 0
[2]; 2 μg/mL
  Antibiotics resistance CHL 2 μg/mL: 0
[3]; 2 μg/mL
  Antibiotics resistance CHL 2 μg/mL: 0
[4]; 2 μg/mL
  Antibiotics resistance CHL 2 μg/mL: 0
[5]; 2 μg/mL
  Antibiotics resistance CHL 2 μg/mL: 0
[6]; 2 μg/mL
  Antibiotics resistance CHL 2 μg/mL: 0
[7]; 2 μg/mL
  Antibiotics resistance CHL 2 μg/mL: 0
[8]; 2 μg/mL
  Antibiotics resistance CHL 2 μg/mL: 0
[9]; 2 μg/mL
  Antibiotics resistance CHL 2 μg/mL: 0
[10]; 2 μg/mL
  Antibiotics resistance CHL 2 μg/mL: 0
[11]; 2 μg/mL
  Antibiotics resistance CHL 2 μg/mL: 0
[12]
  sensitivity / resistance to antibiotics: sensitive

## NC[C@H]1O[C@H](O[C@H]2[C@H](O)[C@@H](O[C@H]3O[C@H](CO)[C@@H](O)[C@H](N)[C@H]3O)[C@H](N)C[C@@H]2N)[C@H](O)[C@@H](O)[C@@H]1O [KAN, Kanamycin]
[1]; 50 μg/mL
  Antibiotics resistance KAN 50 μg/mL: 1
[1]; 100 μg/mL
  Antibiotics resistance KAN 100 μg/mL: 0.5
[2]; 50 μg/mL
  Antibiotics resistance KAN 50 μg/mL: 1
[2]; 100 μg/mL
  Antibiotics resistance KAN 100 μg/mL: 0.5
[3]; 50 μg/mL
  Antibiotics resistance KAN 50 μg/mL: 1
[3]; 100 μg/mL
  Antibiotics resistance KAN 100 μg/mL: 0.5
[4]; 50 μg/mL
  Antibiotics resistance KAN 50 μg/mL: 1
[4]; 100 μg/mL
  Antibiotics resistance KAN 100 μg/mL: 0.5
[5]; 50 μg/mL
  Antibiotics resistance KAN 50 μg/mL: 1
[5]; 100 μg/mL
  Antibiotics resistance KAN 100 μg/mL: 0.5
[6]; 50 μg/mL
  Antibiotics resistance KAN 50 μg/mL: 0.5
[6]; 100 μg/mL
  Antibiotics resistance KAN 100 μg/mL: 0.5
[7]; 50 μg/mL
  Antibiotics resistance KAN 50 μg/mL: 1
[7]; 100 μg/mL
  Antibiotics resistance KAN 100 μg/mL: 0.5
[8]; 50 μg/mL
  Antibiotics resistance KAN 50 μg/mL: 1
[8]; 100 μg/mL
  Antibiotics resistance KAN 100 μg/mL: 0.5
[9]; 50 μg/mL
  Antibiotics resistance KAN 50 μg/mL: 1
[9]; 100 μg/mL
  Antibiotics resistance KAN 100 μg/mL: 0.5
[10]; 50 μg/mL
  Antibiotics resistance KAN 50 μg/mL: 1
[10]; 100 μg/mL
  Antibiotics resistance KAN 100 μg/mL: 0.5
[11]; 50 μg/mL
  Antibiotics resistance KAN 50 μg/mL: 1
[11]; 100 μg/mL
  Antibiotics resistance KAN 100 μg/mL: 0.5

## CN(C)[C@@H]1C(O)=C(C(N)=O)C(=O)[C@@]2(O)C(O)=C3C(=O)c4c(O)cccc4[C@@](C)(O)[C@H]3C[C@@H]12 [TET, Tetracycline]
[1]; 10 μg/mL
  Antibiotics resistance TET 10 μg/mL: 0
[2]; 10 μg/mL
  Antibiotics resistance TET 10 μg/mL: 0
[3]; 10 μg/mL
  Antibiotics resistance TET 10 μg/mL: 0
[4]; 10 μg/mL
  Antibiotics resistance TET 10 μg/mL: 0
[5]; 10 μg/mL
  Antibiotics resistance TET 10 μg/mL: 0
[6]; 10 μg/mL
  Antibiotics resistance TET 10 μg/mL: 0
[7]; 10 μg/mL
  Antibiotics resistance TET 10 μg/mL: 0
[8]; 10 μg/mL
  Antibiotics resistance TET 10 μg/mL: 0
[9]; 10 μg/mL
  Antibiotics resistance TET 10 μg/mL: 0
[10]; 10 μg/mL
  Antibiotics resistance TET 10 μg/mL: 0
[11]; 10 μg/mL
  Antibiotics resistance TET 10 μg/mL: 0
